Measurements: paper PMC2206373, “Identification of an altered peptide ligand based on the endogenously presented, rheumatoid arthritis-associated, human cartilage glycoprotein-39(263–275) epitope: an MHC anchor variant peptide for immune modulation” (Arthritis Research & Therapy, 2007)
Read-outs that look alike come from different tables or passages of the source. No end group written: not given here.

How the values were obtained:
T cell hybridoma 20H5 = assay: T hybridoma 20H5 IL-2 response; assay type: cell-based, mouse; conditions: for Hybridoma response (SI) 20H5: IL-2 by ELISA after 48 h, peptide 10 μg/ml, DRB1*0401 BLCL as APC, SI > 2 positive
Experimental: (§1) The T cell hybridomas, provided by G Sonderstrup (Stanford, CA, USA), were generated as described. In brief, human CD4, HLA-DRA*101/HLA-DRB*0401 triple transgenic (HLA-DR4trg) mice (devoid of I-Aβ) were immunized in the footpad with 50 μg of purified HC gp-39 mixed in incomplete Freund's adjuvant (IFA). Draining lymph nodes were isolated and T-cell hybridomas were generated by polyethylene glycol fusion of primed and in vitro antigen-restimulated lymph node cells with the AKR BW5147 fusion partner. Following fusion, growth-positive hybridoma wells were screened for reactivity to HC gp-39 and a set of 55 peptides (16 amino acids in length) covering the entire HC gp-39 sequence. HLA-DR4(B1*0401)-restricted hybridomas responsive to both the HC gp-39 protein and the immunodominant epitope 263–275 of HC gp-39 (for example, 5G11, 8B12, 14G11 and 20H5) were cloned, subcloned, characterised and selected for further study.
(§2) HC gp-39-specific IL-2 production by T hybridomas was measured in wells of round-bottomed microtiter plates. Hybridoma cells (2 to 5 × 10^4) and irradiated APC (0.5 to 1 × 10^5; 12,000 to 16,000 RAD) from the B lymphoblastoid cell line (BLCL) carrying the DRB1*0401 specificity were incubated in 150 μl volumes. Antigen was added in 50 μl volumes to duplicate wells. After 48 h, 100 μl of the culture supernatant was assayed for IL-2 production using a sandwich ELISA with Pharmingen antibodies specific for mouse IL-2. The antigen sensitivity of the hybridomas to both peptide and protein was determined (Figure 2). […] In later assays, an excess of peptide or APL (10 μg/ml), inducing maximal responses in all hybridomas, was tested.

[1] = tested on: popliteal lymph node cells from HC gp-39(263–275)-immunized huCD4, HLA-DR4 transgenic mice; assay: Antigen-specific proliferation of popliteal lymph node cells from WT peptide-immunized mice; assay type: cell-based, mouse; conditions: 96 h, tritiated thymidine, background 407 cpm, SI > 2 positive, SD not above 30%
Experimental: (§3) Mice, obtained from L Fugger (Oxford, UK), were immunized in the hind footpads with 2 × 50 μg of purified recombinant HC gp-39, with 2 × 100 μg of the WT peptide or with 2 × 100 μg of the APL (F265(Dip); compound 28; Figure 1) mixed in IFA. Seven days later, popliteal lymph node cell suspensions (1 to 2 × 10^5 cells/well) were stimulated in vitro with HC gp-39 (50, 10 or 2 μg/ml), HC gp-39(263–275) or APL (10, 2 and 0.4 μg/ml). At 96 h, 50 μl of culture medium was harvested for analysis of antigen-specific cytokine production using Luminex technology (mouse cytokine 18 Plex Panel, catalogue no. 171-F11181, Biorad, Bio-Rad Laboratories, Hercules, CA, USA). In addition, cultures were labelled with tritiated thymidine (for 18 h) and antigen-specific proliferation was determined. We state that all animal experimentation received ethics approval and animals were treated according to the recognized guidelines.

HLA-DR4(B1*0401) = HLA-DR4(B1*0401) (Homo sapiens, UniProt P01903+P01911, A100K/A169T/F76Y/I96L/K127E/L162R/M171V/N62H/P40V/Q125Y/R42H/S133A/S149N/S66Y/V115G/V209L/W38E); assay: HLA-DR4 competition peptide binding assay; conditions: competition with biotinylated HA307-319 (Y309F) 50 nM, purified HLA-DR4 30 nM, pH 5, 48 h, room temperature
Experimental: HLA-DR bound marker peptide was separated from free marker peptide and the amount of bound marker peptide was detected and quantified by enhanced chemoluminescense. Inhibition curves were generated and the IC50 was determined. The concentration of competitor peptide inducing 50% inhibition of marker peptide binding was determined, and expressed as the 50% inhibitory concentration (IC50 in μM).

[2] = tested on: popliteal lymph node cells from F265(Dip)-immunized HLA-DR4trg mice; assay: Antigen-specific proliferation of popliteal lymph node cells from F265(Dip)-immunized mice; assay type: cell-based, mouse; conditions: Figure 4b
Experimental: as §3

T cell hybridoma 5G11 = assay: T hybridoma 5G11 IL-2 response; assay type: cell-based, mouse; conditions: for Hybridoma response (SI) 5G11: IL-2 by ELISA after 48 h, peptide 10 μg/ml, SI > 2 positive
Experimental: as §1, §2

[3] = tested on: popliteal lymph node cells from HC gp-39(263–275)-immunized huCD4, HLA-DR4 transgenic mice; assay: Antigen-specific cytokine production of popliteal lymph node cells from WT peptide-immunized mice; assay type: cell-based, mouse; conditions: for IFNγ concentration / MIP1α concentration / RANTES concentration: 96 h supernatant, Luminex
Experimental: as §3

T cell hybridoma 8B12 = assay: T hybridoma 8B12 IL-2 response; assay type: cell-based, mouse; conditions: for Hybridoma response (SI) 8B12: IL-2 by ELISA after 48 h, peptide 10 μg/ml, SI > 2 positive
Experimental: as §1, §2

HLA-DRB1*0402 = HLA-DRB1*0402 (Homo sapiens, UniProt P01903+P01911, A100E/A169T/F76Y/K127E/L162R/M171V/N62H/P40V/Q125Y/Q99D/R42H/S133A/S149N/S66Y/V209L/W38E); conditions: cited from earlier work
Excerpt: (§4) Four TCR contact sites (Ala268, Ser269, Glu271 and Thr272) are important for polyclonal T cell activation. No information is available on important residues in the MHC α-chain, but for the β chain information on MHC restriction can be used (data not shown). The peptide does bind to HLA-DRB1*0402, B1*0405 and B1*0101 [7]. […] This leads to the view of the MHC-peptide complex in Figure 3b. Some of these MHC β-chain residues are th ...

B1*0405 = conditions: cited from earlier work
Excerpt: as §4

B1*0101 = conditions: cited from earlier work
Excerpt: as §4

[4] = Figure 2a dose response, IL-2 ELISA after 48 h
[5] = Figure 4a, WT peptide-immunized HLA-DR4trg mice

- IC50 (HLA-DR4(B1*0401); Figure 1, read-out: DRB1*0401 binding IC50): 10 nM
- IC50 (HLA-DR4(B1*0401); Table 1, geometric mean of two experiments, read-out: HLA-DR binding IC50): 120 nM
Sequence: RSFTLASSETGVG [Compound 1, HC gp-39(263–275)]
- Peptide concentration for half maximal stimulation (IL-2), 20H5 (T cell hybridoma 20H5; [4]): 0.02 µg/mL
- Hybridoma response (SI) 20H5 (T cell hybridoma 20H5; Table 1, background 35,749 counts, representative of at least three experiments): 26 SI
- Hybridoma response (SI) 20H5 (T cell hybridoma 20H5; Table 2, background 290,666 counts, SD not above 15%): 5 SI
- Prol (SI) ([1]; peptide 0.4 μg/ml): 3 SI
- Prol (SI) ([1]; peptide 2 μg/ml): 6 SI
- Prol (SI) ([1]; peptide 10 μg/ml): 8 SI
- In vitro recall proliferative response in words [2]: somewhat less
- T hybridoma (SI) 5G11 (T cell hybridoma 5G11; Figure 1, IL-2 production, DRB1*0401 BLCL as APC, duplicate or triplicate, background 29,203 counts, ±30% of WT response = super/partial agonist): 29 SI
- Peptide concentration for half maximal stimulation (IL-2), 5G11 (T cell hybridoma 5G11; [4]): 2 µg/mL
- Hybridoma response (SI) 5G11 (T cell hybridoma 5G11; Table 1, DRB1*0401 BLCL as APC, background 8,147 counts, representative of at least three experiments): 13 SI
- Hybridoma response (SI) 5G11 (T cell hybridoma 5G11; Table 2, DRB1*0401 BLCL as APC, background 17,238 counts, SD not above 15%): 17 SI
- Ex vivo recall IFNγ production in words [3, 5]: significant levels
- Ex vivo recall Mip1α production in words [3, 5]: significant levels
- Ex vivo recall RANTES production in words [3, 5]: significant levels
- IFNγ concentration ([3]; peptide 0.4 μg/ml): <5 pg/mL
- MIP1α concentration ([3]; peptide 0.4 μg/ml): 25 pg/mL
- RANTES concentration ([3]; peptide 0.4 μg/ml): 6 pg/mL
- IFNγ concentration ([3]; peptide 2 μg/ml): 6 pg/mL
- MIP1α concentration ([3]; peptide 2 μg/ml): 128 pg/mL
- RANTES concentration ([3]; peptide 2 μg/ml): 13 pg/mL
- IFNγ concentration ([3]; peptide 10 μg/ml): 16 pg/mL
- MIP1α concentration ([3]; peptide 10 μg/ml): 252 pg/mL
- RANTES concentration ([3]; peptide 10 μg/ml): 23 pg/mL
- T hybridoma (SI) 8B12 (T cell hybridoma 8B12; Figure 1, IL-2 production, DRB1*0401 BLCL as APC, duplicate or triplicate, background 16,288 counts, ±30% of WT response = super/partial agonist): 19 SI
- Peptide concentration for half maximal stimulation (IL-2), 8B12 (T cell hybridoma 8B12; [4]): 0.21 µg/mL
- Hybridoma response (SI) 8B12 (T cell hybridoma 8B12; Table 1, DRB1*0401 BLCL as APC, background 7,470 counts, representative of at least three experiments): 9 SI
- Hybridoma response (SI) 8B12 (T cell hybridoma 8B12; Table 2, DRB1*0401 BLCL as APC, background 8,773 counts, SD not above 15%): 39 SI
- Binding to HLA-DRB1*0402 in words (HLA-DRB1*0402): does bind
- Binding to HLA-DRB1*0405 in words (B1*0405): does bind
- Binding to HLA-DRB1*0101 in words (B1*0101): does bind
